In patent US20220023269A1, “Methods Of Treating Diabetes In Severe Insulin-Resistant Diabetic Subjects” (Balticgruppen Bio AB, priority 2018, published 2022):

Columns and labels:
[1] = test system: muscle; details: in vivo; cited from earlier work
[2] = test system: hypertensive rats; details: acute; cited from earlier work
[3] = test system: DIO mice; assay: Prevention of dysglycemia and insulin resistance in DIO B6 mice (oral gavage, 8 w); assay type: in vivo; details: 100 mg/kg/day each, oral gavage
Procedure: MATSUDA index was calculated via: […] […] All cell lines were lysed in 0.1 M Tris-HCl, pH 6.8, 2% SDS, 10 mM sodium fluoride (SIGMA #S7920), 10 mM β-glycerophosphate (SIGMA #G6376), and 1 mM sodium vanadate (SIGMA #72060) and supernatant collected after 1 minute at 14,000 rpm. Islets (human and mouse) were lysed in 0.1 M Tris-HCl, pH 6.8, 2% SDS, protease inhibitor (Roche #04 693 124 001) and phosphatase inhibitor (Roche #04 906 837 001). […] The supernatant was collected after 2 min at 14,000 rpm. This procedure was repeated until all fat was eliminated and the supernatant was clear, at 4° C. Samples were analysed on 4-15% polyacrylamide gels. Values were normalised toward AMPKα, β-Actin, GAPDH or the respective non-phosphorylated counterpart. For RNA purification calf muscle, iWAT, interscapular BAT, and left lateral liver lobe was crushed in a pestle using liquid nitrogen before turning to respective RNA kit. RNA from liver was prepared using Total RNA isolation Nucleospin II Kit (Macherey-Nagel #740955.50). RNA from adipose tissue was prepared using RNeasy Lipid Tissue Mini kit (Qiagen #74804). RNA from calf muscle tissue was prepared using RNeasy Fibrous Tissue Mini kit (Qiagen #74704). First strand cDNA synthesis was done using SuperScript III (First-Strand Synthesis SuperMix for qRT-PCR, Invitrogen #11752-250) according to the manufacturer's instructions. Total RNA was prepared from isolated islets using RNeasy Micro Kit (Qiagen #74004) and first strand cDNA synthesis was done using Superscript III (Invitrogen #18080-051) according to the manufacturer's instructions. Quantification of mRNA expression levels was performed essentially as previously described (Reference 3).

[4] = test system: diet-induced obese C57BL/6J mice; assay: Combination therapy AMPK activator + SGLT2 inhibitor in DIO mice; assay type: in vivo; details: 2 weeks oral gavage, Compound 1 75 mg/kg, canagliflozin 10 mg/kg
Procedure: Male C57BL/6J mice, 8 weeks of age were purchased from Jackson, Charles River Laboratories, Inc. (Germany). All animals were housed in the Umeå University animal facility (Umeå Centre for Comparative Biology; UCCB) with a 12:12 hour light-dark cycle (lights on at 6 a.m.) and a constant temperature of 21° C. The animals were ear marked with a unique identification number, and groups of 5 mice were housed in transparent polycarbonate cages that comply with the requirements of the Code of Practice for the housing and care of animals used in scientific procedures. Wood chips were used as bedding material and environmental enrichment was provided. Animals were allowed to acclimate for 15 weeks to their new environment before the onset of the study. The animals were allowed ad libitum access to tap water throughout the accommodation and study period. During the acclimation period, the animals were allowed a standard pelleted diet (CRM (E) Rodent, Special Diets Services, Scanbur BK, Sweden). At the start of the study, the standard diet was changed to a very high fat diet (vHFD; Cat. No. D12492, Research Diets, Inc.) and this diet was kept throughout the whole study period. All of the procedures were approved by the Local Ethics Review Committee on Animal Experiments, Umeå Region.
23 Weeks old male C57BL/6J mice were fed HFD to promote diet-induced obesity (DIO) and administered once daily by oral gavage; vehicle (phosphate buffer pH 7.3, 2% w/v methyl cellulose; n=11), canagliflozin 10 mg/kg (n=14), Compound 1 at 75 mg/kg (n=14) and the combination of canagliflozin 10 mg/kg and Compound 1 at […] (n=15). After 2 weeks of treatment, fasted (6 hour) blood glucose and plasma insulin levels (determined in tail vein blood samples) were analysed. Food intake and weight were monitored throughout the study.
Blood samples were collected from the tail vein in Potassium-EDTA vials and plasma was separated by centrifugation and stored at −20° C. until assayed. Plasma insulin was determined with mouse insulin ELISA (Ultra Sensitive Mouse insulin ELISA Kit). Glucose concentrations were analysed in tail vein blood using a OneTouch® Ultra®2 Blood Glucose Meter (LifeScan, Inc).
Results shown in the figures are expressed as means±standard error of the mean (S.E.M.) for the number of animals per group. Statistical significance between the control group and the three treatment groups were analysed by Student's t-test, with P<0.05 considered statistically significant.

[5] = test system: AMPK in HeLa cells; assay: AMPK activation assay in HeLa cells (LKB1 null); assay type: cell-based, human; details: 1 μM, last 20 minutes
Procedure: All cell lines were lysed in 0.1 M Tris-HCl, pH 6.8, 2% SDS, 10 mM sodium fluoride (SIGMA #S7920), 10 mM β-glycerophosphate (SIGMA #G6376), and 1 mM sodium vanadate (SIGMA #72060) and supernatant collected after 1 minute at 14,000 rpm. Islets (human and mouse) were lysed in 0.1 M Tris-HCl, pH 6.8, 2% SDS, protease inhibitor (Roche #04 693 124 001) and phosphatase inhibitor (Roche #04 906 837 001). Right calf muscle, heart, iWAT, and interscapular BAT was crushed in a pestle using liquid nitrogen and homogenised in ice cold RIPA buffer (150 mM sodium chloride (SIGMA #S7653), 1.0% NP40 (USB), 0.5% sodium deoxycholate (SIGMA #D6750), 0.1% SDS, 50 mM Tris pH 8.0, 20 mM sodium pyrophosphate (SIGMA #71515), 10 mM sodium fluoride, 10 mM β-glycerolphosphate, 1 mM sodium vanadate and protease inhibitor cocktail (Roche #04693124001), 1 tablet/10 ml lysis buffer). The supernatant was collected after 2 min at 14,000 rpm. This procedure was repeated until all fat was eliminated and the supernatant was clear, at 4° C. Samples were analysed on 4-15% polyacrylamide gels. Values were normalised toward AMPKα, β-Actin, GAPDH or the respective non-phosphorylated counterpart.
Table 3 contains origin of cell lines, growth conditions and settings for activation of AMPK via the test material. […]

In the case of NC(=O)c1ncn([C@@H]2O[C@H](CO)[C@@H](O)[C@H]2O)c1N [AICAR, 5-aminoimidazole-4-carboxyamide-1-β-D-ribofuranoside], the “microvascular perfusion in muscle” value [1] is given as “increases microvascular perfusion in muscle” and the blood pressure [2] is given as “acutely lower blood pressure”.

In the case of CN(C)C(=N)N=C(N)N [Metformin, reference compound], the “HFD-provoked increase in fasted glucose” value ([3]; 6 w) is reported as “no significant effect”, the “HFD-provoked increase in fasted plasma insulin” value ([3]; 6 w) is reported as “no significant effect” and the “insulin resistance (HOMA-IR)” value ([3]; vs vehicle) is reported as “no significant effect”.

In the case of Cc1ccc([C@@H]2O[C@H](CO)[C@@H](O)[C@H](O)[C@H]2O)cc1Cc1ccc(-c2ccc(F)cc2)s1 [canagliflozin], the HOMA-IR [4] is reported as “lesser reduction”, the fasted blood glucose ([4]; 6 hour fast) is reported as “lesser reduction” and the fasted plasma insulin ([4]; 6 hour fast) is reported as “lesser reduction”.

In the case of C[C@H](CCC(=O)O)C[C@H](C)C[C@H](C)C(=O)/C=C(\O)[C@H](C)C[C@H](C)C/C=C/[C@@H](C)[C@@H](O)[C@@H](C)[C@@H](O)C[C@@H]1CC[C@@](C)([C@H]2CC[C@@](C)([C@@H](C)O)O2)O1 [ionomycin, reference compound], the “AMPK activation (control)” value [5] is reported as “readily activated AMPK”.
